Test results: paper PMC7315563, “Bioactive fluorenes. Part III: 2,7-dichloro-9H-fluorene-based thiazolidinone and azetidinone analogues as anticancer and antimicrobial against multidrug resistant strains agents” (BMC Chemistry, 2020)
In brackets after ≈: the same amount, converted by molar mass.

What was measured:
[1] = tested on: Escherichia coli (E. coli), multidrug resistant clinical isolate; assay: agar well diffusion assay; assay type: cell-based; details: 24 h, 500 µg/mL of tested compound
How it was run: (§1)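 Multidrug-resistant clinical isolates swabbed on Mueller–Hinton agar at about 1–5 × 10^5 CFU/mL; 0.5 cm wells received 50 μL compound at 500 μg/mL in 1% DMSO. Incubation 24 h, 37 °C for bacteria and C. albicans, 25 °C for Aspergillus; inhibition zone diameter measured in mm.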

[2] = tested on: Klebsiella pneumoniae (K. pneumoniae), multidrug resistant clinical isolate; assay: agar well diffusion assay; assay type: cell-based; details: 24 h, 500 µg/mL of tested compound
How it was run: as §1

[3] = tested on: Pseudomonas aeruginosa (P. aeruginosa), multidrug resistant clinical isolate; assay: agar well diffusion assay; assay type: cell-based; details: 24 h, 500 µg/mL of tested compound
How it was run: as §1

[4] = tested on: Staphylococcus aureus (S. aureus), multidrug resistant clinical isolate; assay: agar well diffusion assay; assay type: cell-based; details: Staphylococcus aureus; S. aureus; 500 µg/mL of tested compound; 24 h
How it was run: as §1

[5] = tested on: methicillin-resistant Staphylococcus aureus (MRSA); assay: agar well diffusion assay; assay type: cell-based; details: Staphylococcus aureus, 500 µg/mL of tested compound, 24 h
How it was run: as §1

E. coli = assay: MIC by broth microdilution method (resazurin end point); assay type: cell-based; details: Escherichia coli, 24 h at 37 °C
Protocol: (§2) Determination of Minimum inhibitory concentrations (MIC) of flourene derivatives was done using broth microdilution method. The procedure involved preparation of twofold dilutions of the fluorene derivatives ranging from (500–7.8 μg/mL) in sterile Mueller–Hinton broth inside the wells of 96-well microplate (Sarstedt, Germany). The inoculums of test strains prepared from fresh overnight cultures were adjusted to 0.5 McFarland standards, which equals to 1–2 × 10^8 CFU/mL for bacteria, the procedure was done according to CLSI 2012 [42]. […] For this assay the positive control agents were vancomycin (range: 0.7–50 μg/mL), gentamicin (range: 0.15–10 μg/mL) and the negative control was 1% DMSO.
(§3) For proper determination of the MIC end point resazurin dye has been used. A stock solution of resazurin sodium salt powder (Titan Biotech) was prepared at 0.02% (wt/vol) in distilled water, sterilized by filtration through a […] filter into a sterile light protected container then stored protected from light at 4 °C for up to 1 week, or at − […] for long term use, then 10–15% resazurin solution of the total volume in wells was added to each well and incubation for 1–4 h at 37 °C was done. A change in color from blue to pink indicates the growth of bacteria, and MIC was defined as the lowest concentration of the drug that prevented this change in color.

MRSA = assay: as above; assay type: cell-based; details: Staphylococcus aureus, 24 h at 37 °C, read-out: MIC
Protocol: as §2, §3

S. aureus = assay: as above; assay type: cell-based; details: Staphylococcus aureus; S. aureus; 24 h at 37 °C; read-out: MIC
Protocol: as §2, §3

[6] = tested on: MDA-MB-231 human breast cancer cells; assay: cell viability assay (MTT); assay type: cell-based; details: 24 h; for viability at 1 µg/mL: read-out: Validity (%) for sample concentrations (µg/mL) 1; for viability at 10 µg/mL: read-out: Validity (%) for sample concentrations (µg/mL) 10; for viability at 31.25 µg/mL: read-out: Validity (%) for sample concentrations (µg/mL) 31.25; for viability at 62.5 µg/mL: read-out: Validity (%) for sample concentrations (µg/mL) 62.5; for viability at 125 µg/mL: read-out: Validity (%) for sample concentrations (µg/mL) 125; for viability at 250 µg/mL: read-out: Validity (%) for sample concentrations (µg/mL) 250; for viability at 500 µg/mL: read-out: Validity (%) for sample concentrations (µg/mL) 500
How it was run: (§4)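 24 h treatment, eight concentrations from 0 to 500 µg/mL, cells plated one day earlier at 5000/well in RPMI-1640 + 10% FBS. MTT endpoint, OD 570 nm.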

[7] = tested on: WI-38 human normal fibroblast cells; assay: cell viability assay (MTT); assay type: cell-based; details: 24 h; for viability at 31.25 µg/mL: read-out: Validity (%) for sample concentrations (µg/mL) 31.25; for viability at 62.5 µg/mL: 62.50 µg/mL, read-out: Validity (%) for sample concentrations (µg/mL) 62.50; for viability at 125 µg/mL: read-out: Validity (%) for sample concentrations (µg/mL) 125; for viability at 250 µg/mL: read-out: Validity (%) for sample concentrations (µg/mL) 250; for viability at 500 µg/mL: read-out: Validity (%) for sample concentrations (µg/mL) 500
How it was run: as §4

[8] = tested on: A549 human lung cancer cells; assay: cell viability assay (MTT); assay type: cell-based; details: 24 h; for viability at 1 µg/mL: read-out: Validity (%) for sample concentrations (µg/mL) 1; for viability at 10 µg/mL: read-out: Validity (%) for sample concentrations (µg/mL) 10; for viability at 31.25 µg/mL: read-out: Validity (%) for sample concentrations (µg/mL) 31.25; for viability at 62.5 µg/mL: 62.50 µg/mL, read-out: Validity (%) for sample concentrations (µg/mL) 62.50; for viability at 125 µg/mL: read-out: Validity (%) for sample concentrations (µg/mL) 125; for viability at 250 µg/mL: read-out: Validity (%) for sample concentrations (µg/mL) 250; for viability at 500 µg/mL: read-out: Validity (%) for sample concentrations (µg/mL) 500; for viability at 1000 µg/mL: read-out: Validity (%) for sample concentrations (µg/mL) 1000
[9] = tested on: Acinetobacter baumannii (A. baumannii), multidrug resistant clinical isolate; assay: agar well diffusion assay; assay type: cell-based; details: 500 µg/mL of tested compound, 24 h
How it was run: as §1

P. aeruginosa = assay: MIC by broth microdilution method (resazurin end point); assay type: cell-based; details: Pseudomonas aeruginosa, 24 h at 37 °C
Protocol: as §2, §3

SMILES | zone of inhibition at 500 µg/mL [1] [mm] | zone of inhibition at 500 µg/mL [4] [mm] | MIC (E. coli) [µg/mL] | viability at 1 µg/mL [6] [%] | viability at 10 µg/mL [6] [%] | viability at 31.25 µg/mL [6] [%] | viability at 62.5 µg/mL [6] [%] | viability at 125 µg/mL [6] [%] | viability at 250 µg/mL [6] [%] | viability at 500 µg/mL [6] [%] | IC50 [6] [µg/mL] | viability at 31.25 µg/mL [7] [%] | viability at 62.5 µg/mL [7] [%] | viability at 125 µg/mL [7] [%] | viability at 250 µg/mL [7] [%] | viability at 500 µg/mL [7] [%] | IC50 [7] [µg/mL] | viability at 1 µg/mL [8] [%] | viability at 10 µg/mL [8] [%] | viability at 31.25 µg/mL [8] [%] | other results
COc1cc(C2C(Cl)C(=O)N2c2nc(-c3cc(Cl)cc4c3-c3ccc(Cl)cc3C4)cs2)ccc1O (stereo not drawn) [6h, 3-chloro-1-(4-(2,7-dichloro-9H-fluoren-4-yl)thiazol-2-yl)-4-(4-hydroxy-3-methoxyphenyl)azetidin-2-one] | 22 | 12 | 31.2 (≈ 57.5 µM) | 94.3 | 90.4 | 85.8 | 77.8 | 73.6 | 68.5 | 65.8 | > 500 | 85 | 70.6 | 60.4 | 51.8 | 49.4 | 487 (≈ 895 µM) | 89.5 | 80.9 | 79 | zone of inhibition at 500 µg/mL [2]: 3 mm; zone of inhibition at 500 µg/mL [3]: 8 mm; zone of inhibition at 500 µg/mL [5]: 15 mm; MIC (MRSA): 31.2 µg/mL (≈ 57.5 µM); MIC (S. aureus): 62.5 µg/mL (≈ 115 µM); viability at 62.5 µg/mL [8]: 75.8%; viability at 125 µg/mL [8]: 63.5%; viability at 250 µg/mL [8]: 37.9%; viability at 500 µg/mL [8]: 33%; viability at 1000 µg/mL [8]: 30.3%; IC50 [8]: 192 µg/mL (≈ 353 µM); melting point: 95 to 97 °C
O=C1C(Cl)C(c2ccco2)N1c1nc(-c2cc(Cl)cc3c2-c2ccc(Cl)cc2C3)cs1 (stereo not drawn) [6j, 3-Chloro-1-(4-(2,7-dichloro-9H-fluoren-4-yl)thiazol-2-yl)-4-(furan-2-yl)azetidin-2-one] | 20 | 9 | 31.2 (≈ 64.1 µM) | 96.3 | 92.9 | 75.6 | 73.1 | 69 | 53.2 | 50.6 | 508 (≈ 1040 µM) | 87.3 | 81.4 | 66.3 | 60.9 | 37.2 | 356 (≈ 730 µM) | 95.6 | 87.8 | 76.6 | zone of inhibition at 500 µg/mL [9]: 6 mm; viability at 62.5 µg/mL [8]: 68.2%; viability at 125 µg/mL [8]: 54%; viability at 250 µg/mL [8]: 31.3%; viability at 500 µg/mL [8]: 29.2%; viability at 1000 µg/mL [8]: 28.3%; IC50 [8]: 175 µg/mL (≈ 359 µM); melting point: 95 to 98 °C
O=C1C(Cl)C(c2ccc[nH]2)N1c1nc(-c2cc(Cl)cc3c2-c2ccc(Cl)cc2C3)cs1 (stereo not drawn) [6l, 3-Chloro-1-(4-(2,7-dichloro-9H-fluoren-4-yl)thiazol-2-yl)-4-(1H-pyrrol-2-yl)azetidin-2-one] | 22 | 15 | 31.2 (≈ 64.2 µM) | 96.9 | 90.4 | 85.5 | 71.9 | 69.8 | 66.7 | 60.9 | > 500 | 94 | 76.4 | 70.2 | 52.5 | 39 | 350 (≈ 719 µM) | 85 | 72.2 | 58.1 | zone of inhibition at 500 µg/mL [3]: 8 mm; zone of inhibition at 500 µg/mL [5]: 15 mm; MIC (MRSA): 31.2 µg/mL (≈ 64.2 µM); MIC (P. aeruginosa): 125 µg/mL (≈ 257 µM); MIC (S. aureus): 31.2 µg/mL (≈ 64.2 µM); viability at 62.5 µg/mL [8]: 53.6%; viability at 125 µg/mL [8]: 43.1%; viability at 250 µg/mL [8]: 34%; viability at 500 µg/mL [8]: 30.3%; viability at 1000 µg/mL [8]: 27.9%; IC50 [8]: 95 µg/mL (≈ 195 µM); melting point: 105 to 107 °C
O=C1C(Cl)C(c2ccnc3ccccc23)N1c1nc(-c2cc(Cl)cc3c2-c2ccc(Cl)cc2C3)cs1 (stereo not drawn) [6n, 3-chloro-1-(4-(2,7-dichloro-9H-fluoren-4-yl)thiazol-2-yl)-4-(quinolin-4-yl)azetidin-2-one] | 19 | 9 | 31.2 (≈ 56.9 µM) | 96.2 | 89.5 | 86.8 | 81.3 | 73.2 | 67.1 | 59.2 | > 500 | 98.6 | 85.9 | 53.2 | 43.3 | 39.8 | 212 (≈ 386 µM) | 93.3 | 83.6 | 67.9 | zone of inhibition at 500 µg/mL [9]: 5 mm; zone of inhibition at 500 µg/mL [2]: 5 mm; zone of inhibition at 500 µg/mL [3]: 13 mm; MIC (P. aeruginosa): 62.5 µg/mL (≈ 114 µM); viability at 62.5 µg/mL [8]: 64.2%; viability at 125 µg/mL [8]: 52.7%; viability at 250 µg/mL [8]: 43.2%; viability at 500 µg/mL [8]: 39.1%; viability at 1000 µg/mL [8]: 36.3%; IC50 [8]: 159 µg/mL (≈ 290 µM); melting point: 175 to 177 °C
